Experimental data as given in ChEMBL document CHEMBL1697781, “Assessment of the health effects of chemicals in humans: II. Construction of an adverse effects database for QSAR modeling” (Curr Drug Discov Technol, 2004).

What was measured:
Conditions in all cases: human; call rule not given here
Hepatotoxicity [1] = experiment: FDA HLAED, serum glutamic oxaloacetic transaminase (SGOT) increase
Hepatotoxicity [2] = experiment: FDA HLAED, lactate dehydrogenase (LDH) increase
Hepatotoxicity [3] = experiment: FDA HLAED, gamma-glutamyl transferase (GGT) increase
Hepatotoxicity [4] = experiment: FDA HLAED, liver enzyme composite activity
Hepatotoxicity [5] = experiment: FDA HLAED, serum glutamic pyruvic transaminase (SGPT) increase
Hepatotoxicity [6] = experiment: FDA HLAED, alkaline phosphatase increase
Wherever GGT Increase - Index Value is given: reference of the scale not given here.
Wherever LDH Increase - Index Value is given: reference of the scale not given here.

Row | Compound | SGOT Increase - Activity Score (Hepatotoxicity [1]) | SGOT Increase - Index Value (Hepatotoxicity [1]) | SGOT Increase - Number of Reports (Hepatotoxicity [1]) | LDH Increase - Activity Score (Hepatotoxicity [2]) | LDH Increase - Index Value (Hepatotoxicity [2]) | LDH Increase - Number of Reports (Hepatotoxicity [2]) | GGT Increase - Activity Score (Hepatotoxicity [3]) | GGT Increase - Index Value (Hepatotoxicity [3]) | GGT Increase - Number of Reports (Hepatotoxicity [3]) | SGPT Increase - Activity Score (Hepatotoxicity [5]) | SGPT Increase - Index Value (Hepatotoxicity [5]) | SGPT Increase - Number of Reports (Hepatotoxicity [5]) | Alkaline Phosphatase Increase - Activity Score (Hepatotoxicity [6]) | Alkaline Phosphatase Increase - Index Value (Hepatotoxicity [6]) | Alkaline Phosphatase Increase - Number of Reports (Hepatotoxicity [6]) | Composite Activity - Active (Hepatotoxicity [4]) | Composite Activity - Marginal (Hepatotoxicity [4]) | Composite Activity - Score (Hepatotoxicity [4]) | other results
1 | CC(C)(C)NC(=O)[C@@H]1C[C@@H]2CCCC[C@@H]2CN1C[C@@H](O)[C@H](Cc1ccccc1)NC(=O)[C@H](CC(N)=O)NC(=O)c1ccc2ccccc2n1 | Inactive | 0 | < 4 | Inactive | 0 | < 4 | Inactive | 0 | < 4 | Inactive | 0 | < 4 | Inactive | 0 | < 4 | – | – | – | Composite Activity - Active (Hepatotoxicity [4]; Liver): 0; Composite Activity - Marginal (Hepatotoxicity [4]; Liver): 0; Composite Activity - Score (Hepatotoxicity [4]; Liver): Inactive
2 | C=C1CC[C@@]2(O)[C@H]3Cc4ccc(O)c5c4[C@@]2(CCN3CC2CC2)[C@H]1O5 | Inactive | 0 | < 4 | Inactive | 0 | < 4 | Inactive | 0 | < 4 | Inactive | 0 | < 4 | Inactive | 0 | < 4 | 0 | 0 | Inactive | –
3 | C[C@H]1O[C@H](O[C@H]2[C@H](O)[C@@H](O)[C@@H](O[C@H]3[C@H](O)[C@@H](O)C(O)O[C@@H]3CO)O[C@@H]2CO)[C@H](O)[C@@H](O)[C@@H]1N[C@H]1C=C(CO)[C@@H](O)[C@H](O)[C@H]1O (stereo partly specified) [ACARBOSE] | Active | 5.2 | >= 4 | Inactive | 2.6 | < 4 | Active | 4.3 | >= 4 | Active | 5.2 | >= 4 | Inactive | 0 | < 4 | 3 | 0 | Active | –
4 | CCCC(=O)Nc1ccc(OCC(O)CNC(C)C)c(C(C)=O)c1 (stereo unspecified) [ACEBUTOLOL] | Inactive | 2.6 | >= 4 | Marginally Active | 3.3 | >= 4 | Inactive | 0 | < 4 | Marginally Active | 3.3 | >= 4 | Marginally Active | 3.9 | >= 4 | 0 | 3 | Inactive | –
5 | CC(=O)Nc1ccc(O)cc1 [ACETAMINOPHEN] | Active | No Shipping Units | >= 4 | Marginally Active | No Shipping Units | >= 4 | Marginally Active | No Shipping Units | >= 4 | Active | No Shipping Units | >= 4 | Marginally Active | No Shipping Units | >= 4 | 2 | 3 | Active | –
6 | CC(=O)NO [ACETOHYDROXAMIC ACID] | Inactive | 0 | < 4 | Inactive | 0 | < 4 | Inactive | 0 | < 4 | Inactive | 0 | < 4 | Inactive | 0 | < 4 | 0 | 0 | Inactive | –
7 | Nc1nc2c(ncn2COCCO)c(=O)[nH]1 [ACYCLOVIR] | Inactive | 0.9 | >= 4 | Inactive | 0.1 | < 4 | Inactive | 0 | < 4 | Inactive | 0.1 | < 4 | Inactive | 0.9 | >= 4 | 0 | 0 | Inactive | –
8 | Nc1ncnc2c1ncn2[C@@H]1O[C@H](CO)[C@@H](O)[C@H]1O [ADENOSINE] | Inactive | 0 | < 4 | Inactive | 0 | < 4 | Inactive | 0 | < 4 | Inactive | 0 | < 4 | Inactive | 0 | < 4 | 0 | 0 | Inactive | –
9 | CC(C)(C)NCC(O)c1ccc(O)c(CO)c1 (stereo unspecified) [ALBUTEROL] | Inactive | 0.1 | < 4 | Inactive | 0 | < 4 | Inactive | 0 | < 4 | Inactive | 0 | < 4 | Inactive | 0 | < 4 | – | – | – | Composite Activity - Active (Hepatotoxicity [4]; Liver): 0; Composite Activity - Marginal (Hepatotoxicity [4]; Liver): 0; Composite Activity - Score (Hepatotoxicity [4]; Liver): Inactive
10 | CCC(=O)OCC(=O)[C@@]1(OC(=O)CC)[C@H](C)C[C@H]2[C@H]3[C@H]([C@@H](O)C[C@@]21C)[C@@]1(C)C=CC(=O)C=C1C[C@H]3Cl [ALCLOMETASONE DIPROPIONATE] | Inactive | 0 | < 4 | Inactive | 0 | < 4 | Inactive | 0 | < 4 | Inactive | 0 | < 4 | Inactive | 0 | < 4 | 0 | 0 | Inactive | –
11 | C[C@@H]1C[C@H]2[C@H]3[C@H]([C@@H](O)C[C@]2(C)[C@@]1(O)C(=O)CO)[C@@]1(C)C=CC(=O)C=C1C[C@H]3Cl [ALCLOMETASONE] | Inactive | 0 | < 4 | Inactive | 0 | < 4 | Inactive | 0 | < 4 | Inactive | 0 | < 4 | Inactive | 0 | < 4 | 0 | 0 | Inactive | –
12 | NCCCC(O)(P(=O)(O)O)P(=O)(O)O [ALENDRONIC ACID] | Inactive | 1.4 | >= 4 | Inactive | 1.5 | >= 4 | Inactive | 0.8 | >= 4 | Inactive | 1.4 | >= 4 | Inactive | 2.5 | >= 4 | – | – | – | Composite Activity - Active (Hepatotoxicity [4]; Liver): 0; Composite Activity - Marginal (Hepatotoxicity [4]; Liver): 0; Composite Activity - Score (Hepatotoxicity [4]; Liver): Inactive
